Source: patent US20260258420A1, “COMPOSITIONS AND METHODS FOR THE TREATMENT OF HUMAN PAPILLOMAVIRUS-DRIVEN CANCERS” (priority 2023, published 2026)

Assays:
Assay type in all cases: cell-based
[1] = system: 3 HPV-positive and 3 HPV-negative cell lines; assay: Immunoblot of cleaved PARP and cleaved caspase-3; conditions: 72 hours or 2 doubling times
Protocol: BrdU positive apoptotic cells were detected and quantified. The bar graph indicates the percentage of apoptotic cells with fragmented DNA in HPV-positive and HPV-negative cell lines. Values are the means±the standard deviations for 3 independent experiments. FIG. 2B and FIG. 2C show immunoblots of cleaved PARP (Cl. PARP) and cleaved caspase-3 (Cl. […] UM47, UMSCC47; GAPDH, glyceraldehyde 3-phosphate dehydrogenase. Western blot analysis was performed as described previously (Ferrarotto, et al., Clin Cancer Res 2016; 22(7):1674-86). In brief, cells were lysed with ice-cold lysis buffer, and the lysates were centrifuged at 20,000×g for 10 minutes at 4° C. Cell lysates containing equal amounts of protein were resolved using sodium dodecyl sulfate-polyacrylamide gel electrophoresis, transferred to nitrocellulose membranes, and incubated with different primary antibodies. Protein expression was detected using a horseradish peroxidase-conjugated secondary antibody (Bio-Rad, Hercules, CA) and electrochemiluminescence reagent (Amersham Biosciences, Pittsburgh, PA).

[2] = system: HN31 and MDA886LN cells expressing RB1 shRNA; assay: Apoptosis with TRIP13 overexpression, RB1-knockdown HPV-negative cells; conditions: 300 nmol/L
Protocol: FIG. 5A, two HPV-positive cell lines (CASKI and SIHA) were transfected with BUB1B or MAD2L1 siRNA and then treated for 24 hours with 300 nmol/L alisertib before lysis and immunoblotting with the indicated antibodies. FIG. 5B, TRIP13 was transiently overexpressed (Ox) in 2 HPV-positive cell lines that were treated for 24 hours with 300 nmol/L alisertib before lysis and immunoblotting for the indicated proteins. FIG. 5C, HPV-positive cell lines with TRIP13 overexpression were treated with 300 nmol/L alisertib for 32 hours and then stained for annexin V-PE/7AAD staining and analysis with flow cytometry to measure apoptosis. The bar graph represents the ratio of apoptosis (late plus early) among different groups. Values are the means±the standard deviations for 3 independent experiments. ** P≤0.01; *** P≤0.001; unpaired, 2-tailed Student t-test. FIG. 5D, HN31 (left panel) and MDA886LN (right panel) cells expressing RB1 or control shRNA were transfected with a plasmid for TRIP13. After 24 hours, cells were treated with 300 nmol/L alisertib and then lysed for immunoblotting. Cl, cleaved; Fl, full length; GAPDH, glyceraldehyde 3-phosphate dehydrogenase.
In normal cells, prolonged mitosis resulting from Mad2 overexpression can lead to G1 arrest or mitotic cell death, so it is unclear why Mad2 overexpression is tolerated in HPV-positive cancers. […]

[3] = system: 17 HPV-negative HNSCC and cervical squamous cancer cell lines; assay: High-throughput drug screen (HTDS), cell death by AOC_LD, HPV-negative cell lines
Protocol: The concordance correlation coefficient was computed to assess the reproducibility of the normalized growth rates of the 2 replicates. […] A chi-square test was applied to compare drug classification and the cluster membership. The Fisher exact test was applied to compare mutations status (wild-type and mutant) and drugs' response data (sensitive and resistant).
The effects of 864 unique drugs from 51 classes was tested in 16 HPV-positive and 17 HPV-negative HNSCC and cervical squamous cancer cell lines (Table 2) that were characterized previously (Kaiu, et al., Oncotarget 2017; 8(49):86369-83).

[4] = system: two HPV-positive cell lines transfected with E7 siRNA; assay: Apoptosis immunoblot in HPV-positive cells with E7 siRNA; conditions: 300 nmol/L, 24 hours
Protocol: Each data point represents 1 cell line. Box plots show the median pRb […] levels and 95% confidence intervals across all cell lines in the category. t-test P=0.0097. FIG. 4B, HPV-negative HNSCC cells (HN31, UMSCC4, and MDA886LN) were infected with distinct, lentivirus-based shRNAs (Sh2, Sh4, and Sh6) to stably knock down the expression of RB1 or were treated with control (Ctrl) shRNA. Cells were then treated with 300 nmol/L alisertib for 24 hours before annexin V-PE/7AAD staining and analysis with flow cytometry. The bar graph represents the ratio of apoptosis (late plus early) among different groups. Values are the means±the standard deviations for 3 independent experiments. *P<0.05; **P<0.005; unpaired, 2-tailed Student t-test. FIG. 4C, cells from FIG. 4B were treated with 300 nmol/L alisertib for 24 hours before lysis and immunoblotting with the indicated antibodies. FIG. 4D-E, HN31 cells were stably transfected with an E7 plasmid and treated with 300 nmol/L alisertib for 24 hours before lysis and immunoblotting with (FIG. 4D) the indicated antibodies or (FIG. 4E) annexin-PE staining to measure apoptosis. Values are the means±the standard deviations for 3 independent experiments. ** P≤0.01; *** P≤0.001. FIG. 4F, two HPV-positive cell lines were transfected with 10 nmol/L siRNA oligonucleotides specific to E7 or with control oligonucleotides. […]

[5] = system: HPV-negative HNSCC cells (HN31, UMSCC4, and MDA886LN) with RB1 knockdown; assay: Apoptosis after RB1 depletion in HPV-negative cells (annexin V, immunoblot)
Protocol: FIG. 4B, HPV-negative HNSCC cells (HN31, UMSCC4, and MDA886LN) were infected with distinct, lentivirus-based shRNAs (Sh2, Sh4, and Sh6) to stably knock down the expression of RB1 or were treated with control (Ctrl) shRNA. Cells were then treated with 300 nmol/L alisertib for 24 hours before annexin V-PE/7AAD staining and analysis with flow cytometry. The bar graph represents the ratio of apoptosis (late plus early) among different groups. Values are the means±the standard deviations for 3 independent experiments. *P<0.05; **P<0.005; unpaired, 2-tailed Student t-test. FIG. 4C, cells from FIG. 4B were treated with 300 nmol/L alisertib for 24 hours before lysis and immunoblotting with the indicated antibodies. […] Representative results from 3 independent experiments are shown. Cl, cleaved; Fl, full length; GAPDH, glyceraldehyde 3-phosphate dehydrogenase; Ox, overexpression.
To measure apoptosis, TUNEL staining was performed with an APO-BRDU Kit (BD Biosciences, San Jose, CA) and annexin V/propidium iodide staining with an FITC Annexin V Apoptosis Detection Kit PE (eBioscience, San Diego, CA) as described previously (Kalu, et al., Cancer Lett 2018; 431:64-72). […] Data were acquired with a 3-laser, 10-color Gallios flow cytometer (Beckman Coulter, Brea, CA) and analyzed using Kaluza software, RRID:SCR_016182 (Beckman Coulter, Brea, CA). Assays were performed in triplicate, and each test was completed twice on different days.
The lentiviral-based shRNA (GIPZ plasmid) used to knock down human RB1 expression was purchased from Horizon Discovery (Waterbeach, United Kingdom). On the basis of the knockdown efficiency of Rb1 protein expression in 3 HPV-negative cell lines (HN31, UMSCC4, and MDA88 6LN), shRblclones were selected (#2, #4, and #6) for this study. […] The mature antisense sequences were as follows: 5′-[sequence]-3′ (SEQ ID NO:1) (shRb1 #2), 5′-[sequence]-3′ (SEQ ID NO:2) (shRb1 #4), and 5′-[sequence]-3′ (SEQ ID NO:3) (shRb1 #6). To generate lentivirus-expressing shRNA for RB1, HEK 293T cells were transfected with GIPZ-non-silence (for the vector control virus) and GIPZ-shRB1 with jetPEI transfection reagent (RRID:CVCL_0063). The medium was changed 24 hours after transfection and then collected every 48 hours thereafter. The collected lentivirus-containing medium was centrifuged and then filtered (0.45 μM).

[6] = RB1 shRNA, 300 nmol/L, 24 hours

## COc1cc(Nc2ncc3c(n2)-c2ccc(Cl)cc2C(c2c(F)cccc2OC)=NC3)ccc1C(=O)O [ALISERTIB, alisertib]
[1]
  caspase-3 activation and PARP cleavage: selective caspase-3 activation and PARP cleavage in HPV-positive cancer cell lines
[2]
  apoptosis with TRIP13 overexpression: reduced apoptosis
[3]; resistant = AOC_LD 0
  HPV negative Resistant (number of cell lines): 16
[3]; sensitive = AOC_LD greater than 0
  HPV negative Sensitive (number of cell lines): 1
[4]
  apoptosis with and without E7 knockdown (increased Rb expression): caused apoptosis in the HPV-positive cell lines but not in the same cells with increased Rb expression
[5]; RB1 depleted by transient transfection
  cleaved PARP levels: increase in cleaved PARP levels
[5]; [6]
  apoptosis (cleaved caspase-3 and cleaved PARP) in cells with reduced Rb levels: induced significant apoptosis
  increase in annexin V-positive apoptotic cells when Rb was depleted: approximately 3 fold
[5]; control shRNA, 300 nmol/L, 24 hours
  apoptosis in control cells with detectable Rb protein levels: did not induce apoptosis
